Experimental data: patent US6369109B1, “Betulinic acid and derivatives thereof useful for the treatment of neuroectodermal tumor” (Deutsches Krebsforschungszentrum Stiftung des Offentlichen …, priority 1998, dated 2002)
Entries after “also recorded” stand apart in the source; their conditions may differ. Residues, ends and D or L forms follow the SMILES beside them. *: point of attachment. Cbz = O=C(OCc1ccccc1)*; CH2F = FC*

Legend:
[1] = system: caspase-3, caspase-8 and PARP in cytosolic extracts of SHEP cells; test: Cell-free system of apoptosis: cleavage of caspases in cytosolic extracts by mitochondria; type: biochemical, human; conditions: for effect of inhibitor on caspase processing by supernatants from betulinic acid-treated mitochondria: 50 μM bongkrekic acid or 60 μM zVAD-fmk, FIG. 10A
Method: For determination of nuclear fragmentation, nuclei (10^3/μl) were incubated with mitochondria (1 μg/μl) in buffer D (10 mM HEPES, pH 7.4, 50 mM NaCl, 2 mM MgCl2, 5 mM EGTA, 1 mM DDT, 2 mM ATP, 10 mM phosphocreatine, 50 μg/ml creatine kinase, 10 μM cytochalasin B) for 2 h at 37° C. Nuclei were stained with propidium iodide ([…]) and analyzed by flow cytometry. For determination of caspase activation, cytosolic extracts (2 μg/μl) were incubated with mitochondria (1 μg/μl), cytochrome c (0.1-100 μM) or AIF-containing mitochondrial supernatant (0.5 μg/μl) in buffer D for 2 h at 37° C. Partially purified AIF (cytochrome c-free) was prepared as previously described (0.5 mg/ml, Susin et al., 1997, J. Exp. Med. 186, 5-37; Susin et al., 1996, J. Exp. Med. 184, 1331-41). Proteins were separated by 15% SDS-PAGE and Western blot analysis was performed as described above. To confirm equal loading of mitochondrial protein, all Western blots were also developed with an antibody directed against a 60 kDa mitochondrial antigen (data not shown).
SHEP cells transfected with bcl-2 or Bcl-XL or a neomycin resistance vector only were treated with 10 μg/ml betulinic acid for 16 h. Mitochondria were isolated and incubated with cytosolic extracts for 6 h in the presence or absence of 60 μM zVAD-fmk (left panel, cells). Alternatively, mitochondria isolated from untreated cells were incubated with 10 μg/ml betulinic acid or 5 mM atractyloside together with cytosolic extracts for 6 h in the presence or absence of 60 μMZ-VAD-fmk (right panel, mitos, Atra). Cytosolic extracts incubated with mitochondria isolated from untreated cells or with untreated mitochondria were used as control. 40 μg protein per lane isolated front cell lysates were separated by 15% SDS-PAGE. Immunodetection of caspases-3, -8 and PARP protein was performed by mouse anti-caspase-3 mAb, mouse anti-caspase-8 mAb, rabbit anti-PARP polyclonal antibody and ECL.
SHEP cells treated with 10 μg/ml betulinic acid for indicated times. Mitochondria were isolated and incubated with cytosolic extracts for 6 h. Western blot analysis was performed as described above.
Mitochondria isolated from SHEP cells transfected with bcl-2 or Bcl-XL or a neomycrn resistance vector only were treated with 10 μg/ml betulinic acid or 5 mM atractyloside for 0.5 h in the presence or absence of 50 μM bongkrekic acid or 60 μM zVAD-fmk. Mitochondrial supernatants obtained by high speed centrifugation were incubated with cytosolic extracts for 6 h at 37° C. Cytosolic extracts incubated with supernatants of untreated mitochondria were used as control. Western blot analysis was performed as described for FIG. 9A.
For determination of nuclear fragmentation, nuclei (10^3/μl) were incubated with mitochondria (1 μg/μl) in buffer D (10 mM HEPES, pH 7.4, 50 mM NaCl, 2 mM MgCl2, 5 mM EGTA, 1 mM DDT, 2 mM ATP, 10 mM phosphocreatine, 50 μg/ml creatine kinase, 10 μM cytochalasin B) for 2 h at 37° C. Nuclei were stained with propidium iodide ([…]) and analyzed by flow cytometry (Susin et al., 1997 Exp. Cell Res. 236:397-403). For determination of caspase activation, cytosolic extracts (2 μg/μl) were incubated with mitochondria (1 μg/μl), cytochrome c (10 μM) or AIF-containing mitochondrial supernatant (0.5 μg/μl) in buffer D for 2 h at 37° C. Proteins were separated by 15% SDS-PAGE and Western blot analysis was performed as described before.
SHEP cells transfected with Bcl-2 or Bcl-XL or a neomycin resistance vector only (Neo) were treated (Lanes+) with 0.5 μg/ml Doxo or 10 μg/ml Bet A for 16 h. Mitochondria were isolated and incubated with cytosolic extracts for 6 h. in the presence or absence of 60 μm Z-VAD.fmk. Western blot analysis was performed as described in FIG. 14A.

[2] = system: SH-EP neuroblastoma cells; test: Specific apoptosis, FACS analysis of propidium iodide-stained nuclei; type: cell-based, human; conditions: for effect of CD95 blockage by F(ab′)2 anti-APO-1 on drug-induced apoptosis: 10 μg/ml antibody fragments 1 h before drug, 10 μg/ml betulinic acid, 50 μg/ml VP-16, 10 μg/ml cisplatinum, 0.5 μg/ml doxorubicin, 72 h, FIG. 3B
Method: Quantification of DNA fragmentation was performed by FACS analysis of propidium iodide stained nuclei as described in Nicoletti et al, 1991, J. Immunol. Methods. 139: 271-279. Cells were analyzed for DNA content by flow. cytometry (FACScan, Becton Dickinson, Heidelberg, Germany) using CELLQuest software. Early apoptotic changes were identified by staining with biotinylated annexin V (Bender Med Systems, Vienna, Austria) following the manufacturer's instructions. Annexin V binds to exposed phosphatidylserine on the surface of apoptotic cells. Koopman et al, 1994, Blood. 84:1415-1420. Cells were analyzed by flow cytometry (FAC-Scan. Becton Dickinson) using CELLQuest software.
Cells were treated with 10 μg/ml betulinic acid for 72 h. Apoptosis was assessed by FACS analysis of propidium iodide-stained nuclei. Percentage of specific apoptosis was calculated as follows: experimental apoptosis (%) −spontaneous apoptosis in medium (%)/[100%−spontaneous apoptosis in medium (%)]×100%. […]
Cells were incubated for indicated times with doxorubicin, betulinic acid or anti-APO-1 and harvested by trypsinization using 0.05% trypsin and 0.02% EDTA without Ca^2+and Mg^2+(Life Technologies, Inc.). Quantification of DNA fragmentation was performed by FACS analysis of propidium iodide stained nuclei as previously described in Nicoletti et al., J. ImmunoL Methods 139:271-279, using CELLQuest software (Becton Dickinson, Heidelberg, Germany).
SHEP cells transfected with Bcl-2 or BCl-XL or a neomycin resistance vector only (Neo) were treated with 0.5 μg/ml Doxorubicin or 10 μg/ml Betulinic acid for 48 h (A) or 24 h (B and C). Cells transfected with a neomycin resistance vector only (Neo) were treated in the presence or absence of 50 μm BA or 60 μm zVAD-fmk. Nuclear apoptosis was determined by FACS analysis or propidium iodide-stained DNA content in intact cells (A) or in a CFS incubating isolated nuclei with mitochondria from cells treated with Doxo or betulinic acid (C). ΔΨm was determined by staining cells with the potential-sensitive fluorochrome DiOC6(3) (B).

Row | SMILES | effect of inhibitor on caspase processing by supernatants from betulinic acid-treated mitochondria [1] | effect of inhibitor on cleavage of caspases by mitochondria from drug-treated cells ([1]; 60 μM zVAD-fmk, FIG. 9A, 15A) | effect of inhibitor on betulinic acid-induced apoptosis ([2]; 60 μM zVAD-fmk, 10 μg/ml betulinic acid 72 h, FIG. 2D) | effect of inhibitor on betulinic acid-induced nuclear fragmentation ([2]; 60 μM zVAD-fmk, FIG. 12A) | effect of inhibitor on doxorubicin-induced nuclear fragmentation ([2]; 60 μM zVAD-fmk, FIG. 12A) | caspase and PARP processing in cytosolic extracts by mitochondria from drug-treated cells ([1]; 10 μg/ml betulinic acid or 0.5 μg/ml doxorubicin 16 h, extracts 6 h, FIG. 9A, 15A) | nuclear fragmentation in intact SHEP cells ([2]; 0.5 μg/ml doxorubicin or 10 μg/ml betulinic acid, 48 h, FIG. 12A) | effect of CD95 blockage by F(ab′)2 anti-APO-1 on drug-induced apoptosis [2] | effect of inhibitor on drug-triggered nuclear fragmentation ([2]; 50 μM bongkrekic acid, doxorubicin or betulinic acid, FIG. 12A)
1 | COC(=O)C[C@H](NC(=O)[C@H](C)NC(=O)[C@@H](NC(=O)OCc1ccccc1)C(C)C)C(=O)CF [zVAD-fmk, benzyloxycarbonyl-Val-Ala-Asp-Fluoromethylketone] (Cbz-Val-Ala-Asp(OMe)-CH2F) | inhibited | blocked | almost completely abrogated apoptosis | only affected the betulinic acid-induced nuclear fragmentation | both inhibited |  |  |  | 
2 | COc1cccc2c1C(=O)c1c(O)c3c(c(O)c1C2=O)C[C@@](O)(C(=O)CO)C[C@@H]3O[C@H]1C[C@H](N)[C@H](O)[C@H](C)O1 [doxorubicin] |  |  |  |  |  | induced cleavage of caspases-3, -8 and PARP | induced loss of ΔΨm and nuclear fragmentation | significantly blocked; also recorded: markedly reduced | 
3 | CO[C@H](C/C=C\C=C\CC/C=C/C[C@H](C)/C=C/C(=C\C(=O)O)CC(=O)O)/C(C)=C\C=C(/C)C(=O)O [bongkrekic acid] | inhibited |  |  |  |  |  |  | did not inhibit | inhibited drug-triggered nuclear fragmentation and ΔΨm loss
